# Test system: Enterococcus faecalis
# Test: Antimicrobial activity was determined against vancomycin-resistant Enterococcus faecalis (VREF 51559)
# Format: functional
# Details: not given
row,Structure (SMILES),MIC [µg/mL]
1,CN(C)CCCCNC(=O)c1cc(NC(=O)c2cc(NC(=O)c3cc(NC(=O)c4nsc(NCCCN)c4Cl)cn3C)cn2C)cn1C,0.25
2,Cn1cc(NC(=O)c2cc(NC(=O)c3cc(NC(=O)c4nsc(NCCCNC5CCCCC5)c4Cl)cn3C)cn2C)cc1C(=O)NCCCCN,16
3,Cn1cc(NC(=O)c2cc(NC(=O)c3cc(NC(=O)c4nsc(NCCCNC5CCCCC5)c4Cl)cn3C)cn2C)cc1C(=O)NCCN1CCOCC1,16
4,Cn1cc(NC(=O)c2cc(NC(=O)c3cc(NC(=O)c4nsc(NCCN5CCOCC5)c4Cl)cn3C)cn2C)cc1C(=O)NCCCO,> 32
5,Cn1cc(NC(=O)c2cc(NC(=O)c3cc(NC(=O)c4nsc(NCCCCN)c4Cl)cn3C)cn2C)cc1C(=O)NCCN1CCOCC1,16

# Test system: Streptococcus pneumoniae
# Test: Antimicrobial activity was determined against penicillin-resistant Streptococcus pneumoniae (PRSP 51422)
# Format: functional
# Details: not given
row,Structure (SMILES),MIC [µg/mL]
1,CN(C)CCCCNC(=O)c1cc(NC(=O)c2cc(NC(=O)c3cc(NC(=O)c4nsc(NCCCN)c4Cl)cn3C)cn2C)cn1C,0.125
2,Cn1cc(NC(=O)c2cc(NC(=O)c3cc(NC(=O)c4nsc(NCCCNC5CCCCC5)c4Cl)cn3C)cn2C)cc1C(=O)NCCCCN,16
3,Cn1cc(NC(=O)c2cc(NC(=O)c3cc(NC(=O)c4nsc(NCCCNC5CCCCC5)c4Cl)cn3C)cn2C)cc1C(=O)NCCN1CCOCC1,0.25
4,Cn1cc(NC(=O)c2cc(NC(=O)c3cc(NC(=O)c4nsc(NCCN5CCOCC5)c4Cl)cn3C)cn2C)cc1C(=O)NCCCO,1
5,Cn1cc(NC(=O)c2cc(NC(=O)c3cc(NC(=O)c4nsc(NCCCCN)c4Cl)cn3C)cn2C)cc1C(=O)NCCN1CCOCC1,0.5

# Test system: Streptococcus pneumoniae
# Test: Antimicrobial activity was determined against penicillin-susceptible Streptococcus pneumoniae (PSSP 49619)
# Format: functional
# Details: not given
row,Structure (SMILES),MIC [µg/mL]
1,CN(C)CCCCNC(=O)c1cc(NC(=O)c2cc(NC(=O)c3cc(NC(=O)c4nsc(NCCCN)c4Cl)cn3C)cn2C)cn1C,0.064
2,Cn1cc(NC(=O)c2cc(NC(=O)c3cc(NC(=O)c4nsc(NCCCNC5CCCCC5)c4Cl)cn3C)cn2C)cc1C(=O)NCCCCN,1
3,Cn1cc(NC(=O)c2cc(NC(=O)c3cc(NC(=O)c4nsc(NCCCNC5CCCCC5)c4Cl)cn3C)cn2C)cc1C(=O)NCCN1CCOCC1,0.062
4,Cn1cc(NC(=O)c2cc(NC(=O)c3cc(NC(=O)c4nsc(NCCN5CCOCC5)c4Cl)cn3C)cn2C)cc1C(=O)NCCCO,32
5,Cn1cc(NC(=O)c2cc(NC(=O)c3cc(NC(=O)c4nsc(NCCCCN)c4Cl)cn3C)cn2C)cc1C(=O)NCCN1CCOCC1,0.5

# Test system: Enterococcus faecalis
# Test: Antimicrobial activity was determined against vancomycin-susceptible Enterococcus faecalis (VSEF 29212)
# Format: functional
# Details: not given
row,Structure (SMILES),MIC [µg/mL]
1,CN(C)CCCCNC(=O)c1cc(NC(=O)c2cc(NC(=O)c3cc(NC(=O)c4nsc(NCCCN)c4Cl)cn3C)cn2C)cn1C,0.125
2,Cn1cc(NC(=O)c2cc(NC(=O)c3cc(NC(=O)c4nsc(NCCCNC5CCCCC5)c4Cl)cn3C)cn2C)cc1C(=O)NCCCCN,2
3,Cn1cc(NC(=O)c2cc(NC(=O)c3cc(NC(=O)c4nsc(NCCCNC5CCCCC5)c4Cl)cn3C)cn2C)cc1C(=O)NCCN1CCOCC1,2
4,Cn1cc(NC(=O)c2cc(NC(=O)c3cc(NC(=O)c4nsc(NCCN5CCOCC5)c4Cl)cn3C)cn2C)cc1C(=O)NCCCO,32
5,Cn1cc(NC(=O)c2cc(NC(=O)c3cc(NC(=O)c4nsc(NCCCCN)c4Cl)cn3C)cn2C)cc1C(=O)NCCN1CCOCC1,4

# Test system: Staphylococcus aureus
# Test: Antimicrobial activity was determined against methicillin-resistant Staphylococcus aureus (MRSA 27660)
# Format: functional
# Details: not given
row,Structure (SMILES),MIC [µg/mL]
1,CN(C)CCCCNC(=O)c1cc(NC(=O)c2cc(NC(=O)c3cc(NC(=O)c4nsc(NCCCN)c4Cl)cn3C)cn2C)cn1C,0.25
2,Cn1cc(NC(=O)c2cc(NC(=O)c3cc(NC(=O)c4nsc(NCCCNC5CCCCC5)c4Cl)cn3C)cn2C)cc1C(=O)NCCCCN,2
3,Cn1cc(NC(=O)c2cc(NC(=O)c3cc(NC(=O)c4nsc(NCCCNC5CCCCC5)c4Cl)cn3C)cn2C)cc1C(=O)NCCN1CCOCC1,8
4,Cn1cc(NC(=O)c2cc(NC(=O)c3cc(NC(=O)c4nsc(NCCCCN)c4Cl)cn3C)cn2C)cc1C(=O)NCCN1CCOCC1,4

# Test system: Candida albicans
# Test: Antifungal activity was determined against Candida albicans
# Format: functional
# Details: not given
row,Structure (SMILES),MIC [µg/mL]
1,CN(C)CCCCNC(=O)c1cc(NC(=O)c2cc(NC(=O)c3cc(NC(=O)c4nsc(NCCCN)c4Cl)cn3C)cn2C)cn1C,0.25
2,Cn1cc(NC(=O)c2cc(NC(=O)c3cc(NC(=O)c4nsc(NCCCNC5CCCCC5)c4Cl)cn3C)cn2C)cc1C(=O)NCCCCN,4
3,Cn1cc(NC(=O)c2cc(NC(=O)c3cc(NC(=O)c4nsc(NCCCNC5CCCCC5)c4Cl)cn3C)cn2C)cc1C(=O)NCCN1CCOCC1,16
4,Cn1cc(NC(=O)c2cc(NC(=O)c3cc(NC(=O)c4nsc(NCCN5CCOCC5)c4Cl)cn3C)cn2C)cc1C(=O)NCCCO,> 32
5,Cn1cc(NC(=O)c2cc(NC(=O)c3cc(NC(=O)c4nsc(NCCCCN)c4Cl)cn3C)cn2C)cc1C(=O)NCCN1CCOCC1,8

# Test system: Escherichia coli
# Test: Binding to the sequence 5'-ACAATTAA-3', a site proximal to the […] RNA polymerase subunit binding site within the Escherichia coli Trc promoter.
# Format: functional
# Details: read-out: Kd app
row,Structure (SMILES),Kd [nM]
1,CN(C)CCCCNC(=O)c1cc(NC(=O)c2cc(NC(=O)c3cc(NC(=O)c4nsc(NCCCN)c4Cl)cn3C)cn2C)cn1C,0.53
2,Cn1cc(NC(=O)c2cc(NC(=O)c3cc(NC(=O)c4nsc(NCCCNC5CCCCC5)c4Cl)cn3C)cn2C)cc1C(=O)NCCCCN,2
3,Cn1cc(NC(=O)c2cc(NC(=O)c3cc(NC(=O)c4nsc(NCCCNC5CCCCC5)c4Cl)cn3C)cn2C)cc1C(=O)NCCN1CCOCC1,0.59
4,Cn1cc(NC(=O)c2cc(NC(=O)c3cc(NC(=O)c4nsc(NCCN5CCOCC5)c4Cl)cn3C)cn2C)cc1C(=O)NCCCO,32.1
5,Cn1cc(NC(=O)c2cc(NC(=O)c3cc(NC(=O)c4nsc(NCCCCN)c4Cl)cn3C)cn2C)cc1C(=O)NCCN1CCOCC1,0.37

# Test system: Staphylococcus aureus
# Test: Antimicrobial activity was determined against methicillin-susceptible S. aureus(MSSA 29213)
# Format: functional
# Details: not given
row,Structure (SMILES),MIC [µg/mL]
1,CN(C)CCCCNC(=O)c1cc(NC(=O)c2cc(NC(=O)c3cc(NC(=O)c4nsc(NCCCN)c4Cl)cn3C)cn2C)cn1C,0.5
2,Cn1cc(NC(=O)c2cc(NC(=O)c3cc(NC(=O)c4nsc(NCCCNC5CCCCC5)c4Cl)cn3C)cn2C)cc1C(=O)NCCCCN,2
3,Cn1cc(NC(=O)c2cc(NC(=O)c3cc(NC(=O)c4nsc(NCCCNC5CCCCC5)c4Cl)cn3C)cn2C)cc1C(=O)NCCN1CCOCC1,2
4,Cn1cc(NC(=O)c2cc(NC(=O)c3cc(NC(=O)c4nsc(NCCN5CCOCC5)c4Cl)cn3C)cn2C)cc1C(=O)NCCCO,> 32
5,Cn1cc(NC(=O)c2cc(NC(=O)c3cc(NC(=O)c4nsc(NCCCCN)c4Cl)cn3C)cn2C)cc1C(=O)NCCN1CCOCC1,4

# From ChEMBL document CHEMBL1135329, “DNA binding ligands with excellent antibiotic potency against drug-resistant gram-positive bacteria” (Bioorg Med Chem Lett, 2002)
